Values joined by “and” are separate entries in the source; they are usually repeats but may differ in a detail not shown here. Equal values may be shown once.
Tests used:
[1] = tested on: writhing in mice induced by the intraperitoneal injection of acetic acid; test: mouse-writhing test (inhibition of writhing induced by intraperitoneal acetic acid); format: in vivo; settings: reading at 0.25 hours
Excerpt: In the Table, column 1 gives the name of the compund; column 2, the dosage in mg./kg. of mouse weight; column 3, the route of administration of the drug ("S.C." is subcutaneous and "or" is oral); and column 4, the percent inhibition found at the particular dose level. […] Median inhibiting doses (I.D.50) are also included in the Table.

rat tail jerk = rat tail jerk assay (increase in reaction time over control); format: in vivo
Excerpt: The compounds of this invention are also active in the rat tail jerk assay, another standard pharmacologic test for analgesic activity of the opiate-type. Such activity is manifested as an increase in the reaction time of the animal in removing (jerking) its tail from a nearby heat stimulus (a resistance wire) after drug administration compared to control time (no drug administered). Table 2 which follows gives the increased reaction times over control times produced by the compounds of this invention when administered subcutaneously. In Tables 2 and 3, column 1 gives the name of the compound; column 2, the dose; column 3, time of observation after administration of the drug; column 4, the increase in reaction time above control in seconds; and column 5, the level of significance of the results ("p" value). […] All drugs were administered as aqueous solutions. More than one value for a given dose level indicates multiple determinations. The results are not averaged.

morphine = test: modified rat tail jerk assay, antagonism of morphine; format: in vivo, rats
Experimental: The ability of the compounds of this invention to antagonize the action of morphine, an opiate, is shown by the following modification of the aforementioned rat tail jerk assay: The standard assay procedure is used with the exception that a 7 amps. current is used instead of a 6 amps. current in the hot wire to decrease the measurable agonist effects of the antagonist. The drugs under test are then administered to groups of rats at different dose levels at different times prior to test, with a 5 mg./kg. dose of morphine invariably being administered 10 minutes prior to test. Positive evidence of antagonism is a decreased reaction time over that to be expected from the morphine. […] Among the compounds of this invention, those in which R in Structure I is cyclopropylmethyl are the preferred antagonists, showing activity in the above test procedure. […] In a series of determinations, it was ascertained that the minimum subcutaneous dose necessary to reduce the analgesic effects of a 5 mg./kg. subcutaneous dose of morphine was in the range 2.5-5.0 mg./kg. and the minimum oral dose, 5-10 mg./kg.

toxicity (L.D.50) = format: in vivo, mice; settings: compared with dl mixture
[2] = tested on: morphine induced Straub tail; test: blocking of morphine induced Straub tail in mice; format: in vivo; settings: for blocking on the morphine-induced Straub tail: 15 and 30 minutes before assay
Experimental: In this assay, a 40 mg./kg. dose of morphine was administered to mice 15 minutes prior to assay, and the test drug at various intervals before assay. Trans-dl-1 -cyclopropylmethyl-3a-(m-hydroxyphenyl)-1,2,3,3a,4,5,6,7,7a,8-decahydroisoquinoline maleate gave a 100 percent block of the Straubed tail effected by a subcutaneous injection of 40 mg./kg. of morphine when the test drug was given at a dose of 50 mg./kg. subcutaneously 15 minutes prior to assay, and 80 percent when given 30 minutes prior to assay. The l(-) isomer gave 100 percent blocking on the morphine-induced Straub tail at 50 and 20 mg./kg. doses 15 and 30 minutes before assay.

[3] = subcutaneous, 10 mg./kg., 15 min
[4] = subcutaneous, 50 mg./kg., 15 min

SMILES: O=C(O)/C=C\C(=O)O.Oc1cccc([C@@]23CCCC[C@H]2CN(CC2CC2)CC3)c1 (stereo in doubt) [Trans-d(+)-1-cyclopropylmethyl-3a-(m-hydroxyphenyl)-1,2,3,3a] [Trans-d(+)-1-cyclopropylmethyl-3a-(m-hydroxyphenyl)-1,2,3,3a,4,5,6,7,7a,8-decahydroisoquinoline maleate]
- % Inhibition ([1]; 5 mg./kg. S.C.): inact
- % Inhibition ([1]; 50 mg./kg. S.C.): 44%
- % Inhibition ([1]; 100 mg./kg. S.C.): 51%
- Increase in Reaction Time Over Control (rat tail jerk; oral, 100 mg./kg., 30 min): 0 s
- Increase in Reaction Time Over Control (rat tail jerk; oral, 100 mg./kg., 60 min): 0 s
- Increase in Reaction Time Over Control (rat tail jerk; oral, 100 mg./kg., 120 min): .40 s
- Increase in Reaction Time Over Control (rat tail jerk; oral, 150 mg./kg., 15 min): 0 s
- Increase in Reaction Time Over Control (rat tail jerk; oral, 150 mg./kg., 30 min): 0 s
- Increase in Reaction Time Over Control (rat tail jerk; oral, 150 mg./kg., 60 min): .35 s
- Increase in Reaction Time Over Control (rat tail jerk; oral, 150 mg./kg., 120 min): .30 s
- Increase in Reaction Time Over Control (rat tail jerk; oral, 150 mg./kg., 180 min): .30 s
- lethality in the rat tail jerk assay (rat tail jerk; oral, 200 mg./kg.): lethal
- Increase in Reaction Time Over Control (rat tail jerk; [3]): 0 s
- Increase in Reaction Time Over Control (rat tail jerk; [4]): .25 s
- Increase in Reaction Time Over Control (rat tail jerk; subcutaneous, 50 mg./kg., 30 min): 1.30 s
- Increase in Reaction Time Over Control (rat tail jerk; subcutaneous, 50 mg./kg., 60 min): 2.25 s
- Increase in Reaction Time Over Control (rat tail jerk; subcutaneous, 50 mg./kg., 120 min): .10 s
- Increase in Reaction Time Over Control (rat tail jerk; subcutaneous, 100 mg./kg., 15 min): .50 s
- Increase in Reaction Time Over Control (rat tail jerk; subcutaneous, 100 mg./kg., 30 min): 1.55 s
- Increase in Reaction Time Over Control (rat tail jerk; subcutaneous, 100 mg./kg., 60 min): 3.50 s
- Increase in Reaction Time Over Control (rat tail jerk; subcutaneous, 100 mg./kg., 120 min): 1.15 s
- morphine antagonistic effects (morphine; 100 mg./kg. subcutaneous, 60 minutes before test): shows morphine antagonistic effects
- toxicity relative to the dl mixture (toxicity (L.D.50); listed as d(+) isomer): about the same toxicity as the dl mixture

SMILES: O=C(O)/C=C\C(=O)O.Oc1cccc([C@@]23CCCC[C@H]2CN(CC2CC2)CC3)c1 (stereo in doubt) [Trans-l(-)-1-cyclopropylmethyl-3a-(m-hydroxyphenyl)-1,2,3,3a] [Trans-l(-)-1-cyclopropylmethyl-3a-(m-hydroxyphenyl)-1,2,3,3a,4,5,6,7,7a,8-decahydroisoquinoline maleate]
- % Inhibition ([1]; 2 mg./kg. S.C.): 47%
- % Inhibition ([1]; 5 mg./kg. S.C.): 72%
- Increase in Reaction Time Over Control (rat tail jerk; oral, 5 mg./kg., 60 min): .20 s
- Increase in Reaction Time Over Control (rat tail jerk; oral, 10 mg./kg., 60 min): .65 s
- Increase in Reaction Time Over Control (rat tail jerk; oral, 25 mg./kg., 60 min): 1.30 s
- Increase in Reaction Time Over Control (rat tail jerk; oral, 50 mg./kg., 30 min): 2.25 s
- Increase in Reaction Time Over Control (rat tail jerk; oral, 50 mg./kg., 60 min): 2.80 s
- Increase in Reaction Time Over Control (rat tail jerk; oral, 50 mg./kg., 120 min): .80 s
- Increase in Reaction Time Over Control (rat tail jerk; oral, 100 mg./kg., 60 min): 3.15 s
- Increase in Reaction Time Over Control (rat tail jerk; oral, 200 mg./kg., 30 min, 20 sec. cut off): 4.90 s
- Increase in Reaction Time Over Control (rat tail jerk; oral, 200 mg./kg., 60 min): 5.40 s
- Increase in Reaction Time Over Control (rat tail jerk; oral, 200 mg./kg., 120 min): 2.65 s
- Increase in Reaction Time Over Control (rat tail jerk; subcutaneous, 0.1 mg./kg., 30 min): 85 s
- Increase in Reaction Time Over Control (rat tail jerk; subcutaneous, 0.5 mg./kg., 30 min): 1.30 s
- Increase in Reaction Time Over Control (rat tail jerk; subcutaneous, 1 mg./kg., 30 min): 0 s
- Increase in Reaction Time Over Control (rat tail jerk; subcutaneous, 5 mg./kg., 10 min): 2.75 s
- Increase in Reaction Time Over Control (rat tail jerk; subcutaneous, 5 mg./kg., 15 min): 3.45 s
- Increase in Reaction Time Over Control (rat tail jerk; subcutaneous, 5 mg./kg., 30 min): 3.55 s and 2.95 s
- Increase in Reaction Time Over Control (rat tail jerk; subcutaneous, 5 mg./kg., 30 min, 20 sec. cut off): 6.65 s and 6.95 s
- Increase in Reaction Time Over Control (rat tail jerk; subcutaneous, 5 mg./kg., 60 min): 1.0 s
- Increase in Reaction Time Over Control (rat tail jerk; subcutaneous, 5 mg./kg., 120 min): 0 s
- Increase in Reaction Time Over Control (rat tail jerk; subcutaneous, 5 mg./kg., 180 min): 0 s
- Increase in Reaction Time Over Control (rat tail jerk; subcutaneous, 10 mg./kg., 10 min, 20 sec. cut off): 7.30 s
- Increase in Reaction Time Over Control (rat tail jerk; [3]): 5.80 s
- Increase in Reaction Time Over Control (rat tail jerk; subcutaneous, 10 mg./kg., 15 min, 20 sec. cut off): 6.70 s
- Increase in Reaction Time Over Control (rat tail jerk; subcutaneous, 10 mg./kg., 60 min): 3.0 s
- Increase in Reaction Time Over Control (rat tail jerk; subcutaneous, 10 mg./kg., 90 min): 2.55 s
- Increase in Reaction Time Over Control (rat tail jerk; subcutaneous, 10 mg./kg., 120 min): 4.0 s
- Increase in Reaction Time Over Control (rat tail jerk; subcutaneous, 10 mg./kg., 180 min): 1.50 s
- Increase in Reaction Time Over Control (rat tail jerk; [4]): 7.35 s
- dose showing antagonism of morphine (morphine; subcutaneous): 1 to 2 mg/kg
- blocking on the morphine-induced Straub tail ([2]; 20 mg./kg.): 100%
- blocking on the morphine-induced Straub tail ([2]; 50 mg./kg.): 100%
- blocking the morphine induced Straub tail ([2]; morphine 40 mg./kg.): manifests antagonistic effects in blocking the morphine induced Straub tail in mice
- toxicity relative to the dl mixture (toxicity (L.D.50); listed as l(-) isomer): less toxic than the dl mixture
